Our source for the IC50 values is ChEMBL document CHEMBL5728099, “Thienopyridines and benzothiophenes useful as IRAK4 inhibitors” (2020).

This experiment addresses T1, Interleukin-1 receptor-associated kinase 4 (Homo sapiens, UniProt Q9NWZ3).
T1 sequence (Q9NWZ3 whole entry): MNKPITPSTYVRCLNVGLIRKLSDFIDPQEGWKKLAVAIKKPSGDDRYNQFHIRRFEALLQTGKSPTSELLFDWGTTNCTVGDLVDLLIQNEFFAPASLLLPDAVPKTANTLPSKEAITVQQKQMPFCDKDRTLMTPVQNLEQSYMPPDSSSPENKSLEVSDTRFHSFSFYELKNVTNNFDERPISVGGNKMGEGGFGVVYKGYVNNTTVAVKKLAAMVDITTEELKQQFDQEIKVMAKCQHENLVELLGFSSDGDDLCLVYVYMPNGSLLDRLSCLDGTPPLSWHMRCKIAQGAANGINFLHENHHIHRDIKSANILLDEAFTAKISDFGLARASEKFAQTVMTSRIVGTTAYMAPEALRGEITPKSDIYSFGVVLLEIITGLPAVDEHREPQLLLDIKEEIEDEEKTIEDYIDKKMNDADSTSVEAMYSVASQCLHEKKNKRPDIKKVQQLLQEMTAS
In words: Inhibition Assay: The assays were performed in U-bottom 384-well plates. The final assay volume was 30 μL prepared from 15 μL additions of enzyme and substrates (fluoresceinated peptide and ATP) and test compounds in assay buffer (20 mM HEPES pH 7.2, 10 mM MgCl2, 0.015% Brij 35 and 4 mM DTT). The reaction was initiated by the combination of IRAK4 with substrates and test compounds. The reaction mixture was incubated at room temperature for 60 min. and terminated by adding 45 μL of 35 mM EDTA to each sample. The reaction mixture was analyzed on the Caliper LABCHIP® 3000 (Caliper, Hopkinton, Mass.) by electrophoretic separation of the fluorescent substrate and phosphorylated product. Inhibition data were calculated by comparison to no enzyme control reactions for 100% inhibition and vehicle-only reactions for 0% inhibition. The final concentrations of reagents in the assays are ATP, 500 μM; FL-IPTSPITTTYFFFKKK peptide 1.5 μM; IRAK4, 0.6 nM; and DMSO, 1.6%.

A word on the IC50: it is the midpoint of a concentration-inhibition curve. In the case of `CC[C@H]1[C@@H](COc2csc3cc(C(N)=O)c(OC)nc23)NC(=O)C1(C)C`, the IC50 is 595 nM.
